Results: article PMC2727864 (Molecular cancer therapeutics, 2008)
Values joined by “and” are separate entries in the source; they are usually repeats but may differ in a detail not shown here. Identical values can stand only once.

Legend:
[1] = Pharmacokinetic study, plasma concentration in mice; format: in vivo, mouse
Solubility = format: physicochemical
tumor phospho-Ser473 AKT = assay: Pharmacodynamic study, tumor phospho-Ser473 AKT in HT-29 xenografts; format: in vivo, mouse
[2] = Metabolic stability, incubation with HT-29 cells in DMEM at 37°C; format: in vitro ADME; settings: human
phospho-Ser473 AKT [3] = assay: Inhibition of phospho-Ser473 AKT by Western analysis in NIH3T3 cells; format: cell-based; settings: Mus musculus, NIH3T3, read-out: AKT inhibition (IC50) NIH3T3
phospho-(pan)-PKC = assay: Phospho-; format: cell-based, human; settings: HT-29, 2 hr, EGF stimulated, Western blot
phospho-Ser241 PDK1 = assay: Phospho-Ser241 PDK1 Western analysis in HT-29 cells; format: cell-based, human; settings: HT-29, 2 hr, EGF stimulated, Western blot
[4] = test system: HT-29 colon cancer xenografts; assay: Anti-tumor activity, HT-29 colon cancer xenografts in scid mice; format: in vivo, mouse; settings: orally daily for 5 days at 250 mg/kg
phospho-Ser473 AKT [5] = assay: Inhibition of phospho-Ser473 AKT by Western analysis in HT-29 cells; format: cell-based, human
Toxicity studies in mice = format: in vivo, mouse
LogP = format: physicochemical
[6] = 24 hr after a single dose 250 mg/kg
[7] = five daily doses at 250 mg/kg ip

For `CC1=NN(C(=O)c2ccc(Cl)cc2)C(=O)C1N=Nc1ccc(S(=O)(=O)Nc2ncccn2)cc1` (centres unmarked) [Compound 1, 4-[1-(4-Chlorobenzoyl)-3-methyl-5-oxo-4,5-dihydro-1H-pyrazol-4-ylazo]-N-pyrimidin-2-yl-benzenesulfonamide], the “peak plasma concentration, ip” value ([1]; single dose 250 mg/kg ip) was 1.4 µM, the “peak plasma concentration, oral” value ([1]; single dose 250 mg/kg oral) was 0.6 µM and the “solubility” value (Solubility) was “very insoluble and 17.9 µM”. The “inhibition of tumor phospho-Ser473 AKT at 4 hr” value (tumor phospho-Ser473 AKT; 4 hr after a single dose 250 mg/kg) was “small inhibition”, the “inhibition of tumor phospho-Ser473 AKT at 24 hr” value (tumor phospho-Ser473 AKT; [6]) was “no inhibition” and the “total AKT in tumor compared to actin loading control” value (tumor phospho-Ser473 AKT; [6]) was “significant decrease”. For the same compound, the half-life [2] was 1.03 h, the IC50 (phospho-Ser473 AKT [3]) was 4 µM and the “phosphorylation of PKC” value (phospho-(pan)-PKC) was “decreased”. For the same compound, the “phosphorylation of PDK” value (phospho-Ser241 PDK1) was “decreased”, the anti-tumor activity [4] was “no activity” and the “AKT phosphorylation, concentration response” value (phospho-Ser473 AKT [5]; HT-29, 2 hr, EGF stimulated, Western blot) was “decreased in a concentration-dependent manner”. The IC50 (phospho-Ser473 AKT [5]; Homo sapiens, HT-29, read-out: AKT inhibition (IC50) HT-29) was 13 µM, the “body weight, blood lymphocyte, red blood cell and platelet count, AST, ALT” value (Toxicity studies in mice; [7]) was “no change” and the neutropenia (Toxicity studies in mice; [7]) was “moderate neutropenia”. For the same compound, the “toxicity, single dose” value (Toxicity studies in mice; single dose up to 250 mg/kg, ip, mice) was “no toxicity” and the logP (LogP) was 2.1.
